This is an account of results in ChEMBL document CHEMBL1124619, “Phencyclidine-like effects of tetrahydroisoquinolines and related compounds” (J Med Chem, 1989).

In general, IC50 refers to the concentration needed to halve the response being measured. Higher therefore signals weaker potency. For orientation: ED50 means the dose that gives a 50% effect, or the effect in half of the subjects. Low readings indicate greater potency, high ones weaker potency.

Test [1] has as its target T1, Sigma non-opioid intracellular receptor 1 (Rattus norvegicus, UniProt Q9R0C9). Kind of test: Inhibition of [3H]- N-allylnormetazocine ([3H]NANM) binding to sigma receptor.
In test [2] the target is T2, Glutamate receptor ionotropic, NMDA 2C (Rattus norvegicus, UniProt Q00961). Kind of test: Inhibition of [3H]1-[1-(2-thienyl) piperidine ([3H]TCP) binding to phencyclidine receptor; NI = No detectable inhibition of binding at 30 uM.
T2 sequence (Q00961 whole entry): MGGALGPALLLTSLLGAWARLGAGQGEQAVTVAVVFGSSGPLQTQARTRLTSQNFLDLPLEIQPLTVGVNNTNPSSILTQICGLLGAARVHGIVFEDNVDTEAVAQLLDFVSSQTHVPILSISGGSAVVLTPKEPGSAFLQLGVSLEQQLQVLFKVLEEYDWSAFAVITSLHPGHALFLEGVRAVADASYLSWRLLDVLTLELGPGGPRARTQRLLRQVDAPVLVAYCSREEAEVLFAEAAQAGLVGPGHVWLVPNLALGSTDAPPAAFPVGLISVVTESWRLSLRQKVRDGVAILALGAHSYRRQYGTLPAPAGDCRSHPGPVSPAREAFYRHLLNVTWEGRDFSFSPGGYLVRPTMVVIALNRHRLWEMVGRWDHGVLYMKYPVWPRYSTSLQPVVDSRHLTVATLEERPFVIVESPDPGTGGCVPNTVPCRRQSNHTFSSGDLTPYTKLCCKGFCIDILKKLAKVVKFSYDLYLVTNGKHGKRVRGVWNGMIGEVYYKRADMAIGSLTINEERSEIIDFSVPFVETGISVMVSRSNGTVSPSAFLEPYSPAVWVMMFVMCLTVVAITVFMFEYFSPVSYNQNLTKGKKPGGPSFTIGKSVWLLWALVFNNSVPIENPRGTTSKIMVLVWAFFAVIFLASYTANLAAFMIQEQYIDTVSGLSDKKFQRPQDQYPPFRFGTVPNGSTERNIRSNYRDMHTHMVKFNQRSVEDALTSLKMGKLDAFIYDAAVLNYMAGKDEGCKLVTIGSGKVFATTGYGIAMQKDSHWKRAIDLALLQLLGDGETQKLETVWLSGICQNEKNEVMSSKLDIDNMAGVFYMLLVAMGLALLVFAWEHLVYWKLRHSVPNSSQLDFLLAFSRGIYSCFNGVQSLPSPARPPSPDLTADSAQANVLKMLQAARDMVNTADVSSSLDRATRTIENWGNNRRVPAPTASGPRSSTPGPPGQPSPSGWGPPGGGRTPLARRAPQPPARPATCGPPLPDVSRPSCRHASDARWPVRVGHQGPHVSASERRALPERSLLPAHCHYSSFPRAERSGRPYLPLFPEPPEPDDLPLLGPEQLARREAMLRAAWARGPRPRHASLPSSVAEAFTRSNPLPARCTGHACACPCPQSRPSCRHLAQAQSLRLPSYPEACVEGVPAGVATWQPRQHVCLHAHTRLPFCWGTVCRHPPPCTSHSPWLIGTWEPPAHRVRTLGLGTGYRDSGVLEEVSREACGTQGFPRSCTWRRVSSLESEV
In test [3] the target is T2, Glutamate receptor ionotropic, NMDA 2C. Put plainly: Inhibition of [3H]1-[1-(2-thienyl) piperidine ([3H]TCP) binding to PCP receptor.
The target in test [4] is Glutamate receptor ionotropic, NMDA 2C (Rattus norvegicus) (UniProt Q00961). Kind of test: (§1) Compound was tested for induction of phencyclidine (PCP) like ataxia behavior. It is filed as functional.
Glutamate receptor ionotropic, NMDA 2C (Rattus norvegicus), sequence (Q00961 20-1237 limits assumed): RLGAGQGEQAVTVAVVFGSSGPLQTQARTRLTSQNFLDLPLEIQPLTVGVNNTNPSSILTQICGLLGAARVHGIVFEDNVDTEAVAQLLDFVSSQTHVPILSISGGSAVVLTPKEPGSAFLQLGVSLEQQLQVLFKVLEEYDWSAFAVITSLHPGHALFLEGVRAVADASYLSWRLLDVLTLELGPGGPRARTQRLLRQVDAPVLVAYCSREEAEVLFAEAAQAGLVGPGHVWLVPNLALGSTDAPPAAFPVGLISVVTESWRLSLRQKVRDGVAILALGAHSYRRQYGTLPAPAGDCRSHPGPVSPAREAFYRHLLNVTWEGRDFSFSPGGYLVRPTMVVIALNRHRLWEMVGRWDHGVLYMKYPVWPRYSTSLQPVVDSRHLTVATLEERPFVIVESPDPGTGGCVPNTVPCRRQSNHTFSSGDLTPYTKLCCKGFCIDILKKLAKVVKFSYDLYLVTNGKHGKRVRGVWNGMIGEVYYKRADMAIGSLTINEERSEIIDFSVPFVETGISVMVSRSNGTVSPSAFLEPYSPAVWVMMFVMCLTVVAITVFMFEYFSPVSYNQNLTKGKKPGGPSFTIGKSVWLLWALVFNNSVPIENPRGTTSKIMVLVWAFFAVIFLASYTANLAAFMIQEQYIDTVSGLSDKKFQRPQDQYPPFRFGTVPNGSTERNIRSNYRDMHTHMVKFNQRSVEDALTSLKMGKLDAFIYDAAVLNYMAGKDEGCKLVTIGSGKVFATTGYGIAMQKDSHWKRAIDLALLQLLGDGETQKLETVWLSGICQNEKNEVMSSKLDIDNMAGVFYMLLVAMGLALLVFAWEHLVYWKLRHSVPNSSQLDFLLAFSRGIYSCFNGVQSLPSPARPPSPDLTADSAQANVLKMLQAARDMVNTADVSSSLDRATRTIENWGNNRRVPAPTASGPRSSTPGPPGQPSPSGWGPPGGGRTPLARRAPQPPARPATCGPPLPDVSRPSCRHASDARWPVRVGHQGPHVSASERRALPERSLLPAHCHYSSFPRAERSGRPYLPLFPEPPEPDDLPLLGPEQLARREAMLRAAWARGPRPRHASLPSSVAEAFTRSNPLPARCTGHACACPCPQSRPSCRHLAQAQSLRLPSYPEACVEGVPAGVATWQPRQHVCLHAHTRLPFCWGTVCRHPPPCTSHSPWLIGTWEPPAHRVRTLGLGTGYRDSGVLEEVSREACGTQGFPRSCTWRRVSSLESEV
For test [5] the target is unchanged. Kind of test: (§2) Compound was tested for induction of phencyclidine (PCP) like stereotyped behavior. It is filed as functional.
Test [6] is filed under the species Rattus norvegicus. Described as §1. It counts as functional.
For test [7], the species on record is Rattus norvegicus. The description is as §2. It counts as functional.
For test [8], the target named is T1, Sigma non-opioid intracellular receptor 1. Put plainly: Inhibition of [3H]- N-allylnormetazocine ([3H]-NANM) binding to sigma receptors; NI = No detectable inhibition of binding at 30 uM.
The target in test [9] is T2, Glutamate receptor ionotropic, NMDA 2C. Kind of test: Inhibition of [3H]1-[1-(2-thienyl) piperidine ([3H]TCP) binding to PCP receptor; NI = No detectable inhibition of binding at 30 uM.

T1 sequence (Q9R0C9 whole entry): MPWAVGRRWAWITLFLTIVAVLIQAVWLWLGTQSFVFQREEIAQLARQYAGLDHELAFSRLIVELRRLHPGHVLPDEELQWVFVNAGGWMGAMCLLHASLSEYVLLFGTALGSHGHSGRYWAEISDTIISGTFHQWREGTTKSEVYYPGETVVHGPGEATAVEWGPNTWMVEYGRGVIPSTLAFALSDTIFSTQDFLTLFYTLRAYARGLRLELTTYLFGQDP

`CN1CCc2ccccc2C1c1ccccc1` (stereo unspecified) yielded an IC50 in test [1] of 2.9 µM.
Take `c1ccc(CN2CCc3ccccc3C2)cc1`: the IC50 in [1] was 7.8 µM; in test [2], “Not Active”.
As for `CCOCCN1CCc2ccccc2C1c1ccccc1` (stereo unspecified), the figures for the IC50 in test [3] and in [1] were 8.2 µM and 5.4 µM, respectively.
For the compound `Fc1ccc(C2NCCc3ccccc32)cc1` (stereo unspecified), the ED50 was determined as 49 mg/kg in test [4] and 38 mg/kg in [5]. Besides, the IC50 in test [1] was determined as 1.8 µM.
For the compound `c1ccc(C2NCCc3ccsc32)cc1` (stereo unspecified), the IC50 in test [3] was 8.8 µM; in [1], 6.3 µM. Also, the median effective dose (ED50) in the test listed under Rattus norvegicus [6] and in the test filed under Rattus norvegicus [7] was > 50 mg/kg each time.
Consider `Cc1ccc(C2NCCc3ccccc32)cc1` (stereo unspecified), for which the IC50 in test [1] amounted to 5.6 µM.
Consider `c1ccc2c(c1)CCNC21CCCCC1`, for which the IC50 result in test [8] and in [2] was “Not Active” throughout.
With `CCN1CCc2ccccc2C1c1ccccc1` (stereo unspecified), in test [1], the concentration for half-maximal inhibition (IC50) is 1.3 µM.
Take `c1csc(C2NCCc3ccccc32)c1` (stereo unspecified): the IC50 in [3] was 7.6 µM; in test [1] it was 3.8 µM. This compound also showed a 50% effective dose (ED50) in the test filed under Rattus norvegicus [7] of 54 mg/kg.
The compound `Clc1ccc(C2NCCc3ccccc32)cc1` (stereo unspecified) had an IC50 in test [1] of 3.4 µM.
For the compound `C=CCN1CC[C@]2(C)c3ccccc3CC1[C@@H]2C`, in [1], the IC50 was determined as 0.05 µM.
As for `C=CCN1CCc2ccccc2C1c1ccc2ccccc2c1` (stereo unspecified), the 50% inhibitory concentration (IC50) is 11 µM in [1] and “Not Active” in [2].
Consider `c1csc(C2(N3CCCCC3)CCCCC2)c1` [TENOCYCLIDINE], for which, in [1], the IC50 is 0.24 µM.
Turning to `c1ccc(C2Cc3ccccc3CN2)cc1` (stereo unspecified), the ED50 in [4] was found to be 18 mg/kg; in test [5] it was 19 mg/kg. The IC50 in test [1] came out at 2.6 µM.
With `CN1CCc2ccccc2C1`, the IC50 in test [1] came out at 2.7 µM.
On to `c1ccc(CC2NCCc3ccccc32)cc1` (stereo unspecified), for which the figures for the ED50 in test [4] and in test [5] were 42 mg/kg and 26 mg/kg, respectively. In test [1], the IC50 was found to be 0.43 µM.
`c1ccc(C2CNCc3ccccc32)cc1` (stereo unspecified) had an IC50 in test [1] of 4.2 µM.
Consider `C=CCN1C(C)Cc2ccccc2C1C` (stereo unspecified), for which the concentration for half-maximal inhibition (IC50) in [1] came to 1.6 µM.
Take `c1ccc(C2NCCCc3ccccc32)cc1` (stereo unspecified): the half-maximal inhibitory concentration (IC50) entry in [8] and in test [2] was “Not Active” in each case.
In the case of `CC(C)C1NCCc2ccsc21` (stereo unspecified), the 50% inhibitory concentration (IC50) in test [3] was found to be 17 µM; in [1] it was 3.8 µM.
For `CCN1CCc2ccsc2C1C(C)C` (stereo unspecified), the IC50 in test [3] is 12 µM; in test [8], “Not Active”.
Consider `c1ccc(C2NCCc3ccccc32)cc1` (stereo unspecified), for which the ED50 was > 20 mg/kg in test [4] and 25 mg/kg in test [5].
Take `CC1NCCc2ccsc21` (stereo unspecified): the IC50 in test [3] is > 30 µM; in test [1], 11 µM.
With `CC(C)C1c2sccc2CCN1C` (stereo unspecified), the results for the IC50 in test [3] and in test [1] were 17 µM and 7.8 µM, respectively.
`C=CCN1CCc2ccccc2C1c1ccccc1` (stereo unspecified) yielded an IC50 in [1] of 1.3 µM.
With `c1ccc(C2(N3CCCCC3)CCCCC2)cc1` [PHENCYCLIDINE], the ED50 came to 6.5 mg/kg in [4] and 4.7 mg/kg in [5]. The IC50 in test [1] is 0.53 µM.
For `C=CCN1CCc2ccsc2C1c1ccccc1` (stereo unspecified), the IC50 entry was “Not Active” in test [9] and 20 µM in test [1].
In test [1], `C=CCN1CCc2ccccc2C1C1CCCCC1` (stereo unspecified) displayed an IC50 of 3.1 µM.
Turning to `COc1ccc(C2NCCc3ccccc32)cc1` (stereo unspecified), the IC50 in [3] was 2.5 µM; in test [1], 2.2 µM.
For the compound `COc1ccccc1-c1cccc2c1CNCC2`, the results for the IC50 in [3] and in test [1] were 0.9 µM and 1.8 µM, respectively. For the same compound, the figures for the ED50 in the test filed under Rattus norvegicus [6] and in the test listed under Rattus norvegicus [7] were 22 mg/kg and 20 mg/kg, respectively.
As to `CC1Cc2ccccc2CN1C` (stereo unspecified), the IC50 in test [1] turned out to be 2.6 µM.
As to `c1ccc(-c2cccc3c2CNCC3)cc1`, the 50% effective dose (ED50) in [4] was 44 mg/kg; in test [5] it was 28 mg/kg. In addition, the IC50 in test [1] was 2.7 µM.
As for `c1ccc(C2NCc3ccccc32)cc1` (stereo unspecified), the 50% inhibitory concentration (IC50) in test [1] is > 30 µM.
Turning to `C=CCN1CCc2ccsc2C1C(C)C` (stereo unspecified), the concentration for half-maximal inhibition (IC50) in [3] turned out to be 8.5 µM; in test [1] it was 5 µM.
`CC(C)CC1NCCc2ccccc21` (stereo unspecified) registered an IC50 in test [1] of 5 µM.
In test [1], `c1ccc2c(c1)CCNC2C1CCCCC1` (stereo unspecified) showed an IC50 of 11 µM.
In turn, `c1ccc2c(c1)CCNC2c1ccc2ccccc2c1` (stereo unspecified) showed an IC50 in test [1] of 10 µM.
Turning to `CC(C)C1NCCc2ccccc21` (stereo unspecified), the IC50 in test [1] was found to be 2.5 µM.
For `CC1Cc2ccccc2CN1Cc1ccccc1` (stereo unspecified), the IC50 in [1] worked out at 3.2 µM.
In test [1], `CC1Cc2ccccc2C(C)N1` (stereo unspecified) showed an IC50 of 15 µM. Against the preceding compound, the IC50 is about 4.7-fold higher.
